In patent US20260166057A1, “1,3,5(10),16-ESTRATETRAEN-3-YL ACETATE FOR USE IN IMPROVING PSYCHOMOTOR OR COGNITIVE PERFORMANCE” (priority 2023, published 2026):

Legend:
rats of both sexes = assay: 7-day intravenous administration to rats of both sexes; format: in vivo
[1] = tested on: subjects with excessive daytime sleepiness; assay: ETA in mental fatigue associated with excessive daytime sleepiness (Example 6); format: in vivo, human; settings: intranasal as in Example 4
Text: In subjects experiencing decreased psychomotor and/or cognitive performance in mental fatigue associated with excessive daytime sleepiness, a therapeutically effective amount of ETA is intranasally administered as described in Example 4. Psychomotor and cognitive performance improve in this group of subjects.

[2] = tested on: subjects with MDD or peripartum depression; assay: ETA in mental fatigue associated with a depressive disorder (Example 7); format: in vivo, human; settings: nasal as in Example 4
Text: In subjects experiencing decreased psychomotor and/or cognitive performance in mental fatigue associated with a depressive disorder such as MDD or peripartum depression, a therapeutically effective amount of ETA is nasally administered to the olfactory epithelium as described in Example 4. Psychomotor and cognitive performance improve in this group of subjects.

healthy male volunteers [3] = settings: in vivo
[4] = tested on: healthy volunteers of both sexes; assay: Pilot human trials, nasal administration
healthy male volunteers [5] = assay: Adverse events in the efficacy study in mentally fatigued men; settings: ETA nasal spray 1600 ng per administration, all subjects

CC(=O)Oc1ccc2c(c1)CC[C@@H]1[C@@H]2CC[C@]2(C)C=CC[C@@H]12 [ETA, 1,3,5(10),16-Estratetraen-3-yl acetate]
mortality, adverse symptoms, changes in behavior (rats of both sexes; 1 mg/day intravenously, rats of both sexes, 7-day period): no mortality or adverse symptoms, or changes in behavior | macroscopic or microscopic changes in organs (rats of both sexes; rat, in vivo, iv): no macroscopic or microscopic changes | psychomotor and cognitive performance [1]: improve | psychomotor and cognitive performance [2]: improve | serious adverse events (healthy male volunteers [3]): no serious adverse events | alpha frequency band of the electroencephalogram ([4]; intranasal administration): did not have significant effect | beta frequency band of the electroencephalogram ([4]; intranasal administration): did not have significant effect | body temperature ([4]; intranasal administration): did not have significant effect | duration of the QTc intervals of the electrocardiogram ([4]; intranasal administration): did not change | frequency of electrodermal activity events (skin conductance) ([4]; intranasal administration): significantly increased | tolerability ([4]; nasal administration, healthy volunteers): well tolerated | tolerability (healthy male volunteers [5]): well tolerated
